In article PMC6662551 (Clinical and Translational Science, 2019):
Values joined by “and” are separate entries in the source; they are usually repeats but may differ in a detail not shown here. Equal entries are not always repeated. Where two headings read alike, the source gives them in different places.

Columns and labels:
OATP1B1 [1] = assay type: in vivo, human; conditions: human, plasma, oral; for AUC(0-t): AUClast, 0.25-12 hour; for C0: C0, plasma, baseline
[2] = assay type: in vivo, human; conditions: for AUClast: 0.25-12 hour; for ratio of mean AUC in SLCO1B1 c.521‐CC to c.521TT: endogenous biomarker; for C0: plasma; for baseline (C0) level: 16 samples
OATP1B1 [3] = conditions: c.521T>C carriers; cited from earlier work
[4] = pravastatin + cyclosporine, CC (N = 2)
[5] = pravastatin + cyclosporine, TC (N = 6)
[6] = pravastatin + cyclosporine, TT (N = 8)
[7] = pravastatin + placebo, CC (N = 2)
[8] = pravastatin + placebo, TC (N = 6)
[9] = pravastatin + cyclosporine, all genotype (N = 16)
[10] = pravastatin + placebo, TT (N = 8)
[11] = pravastatin + placebo, all genotype (N = 16)
[12] = 12 hours after first CsA dose, pravastatin + cyclosporine, all genotype
[13] = baseline, pravastatin + placebo, all genotype
[14] = pravastatin + cyclosporine (N = 16)

Molecule	AUClast [2, 9] [µM·h]	AUClast [2, 10] [µM·h]	AUClast fold increase, pravastatin plus CsA over pravastatin plus placebo ([2]; CC (N = 2)) [fold]	Cavg fold increase, pravastatin plus CsA over pravastatin plus placebo ([2]; CC (N = 2)) [fold]	AUClast fold increase, pravastatin plus CsA over pravastatin plus placebo ([2]; TC (N = 6)) [fold]	Cavg fold increase, pravastatin plus CsA over pravastatin plus placebo ([2]; TC (N = 6)) [fold]	AUClast fold increase, pravastatin plus CsA over pravastatin plus placebo ([2]; TT (N = 8)) [fold]	Cavg fold increase, pravastatin plus CsA over pravastatin plus placebo ([2]; TT (N = 8)) [fold]	Cavg fold increase, pravastatin plus CsA over pravastatin plus placebo ([2]; all genotype) [fold]	Cmax fold increase, pravastatin plus CsA over pravastatin plus placebo ([2]; all genotype (N = 16)) [fold]	C0 [2, 12]	C0 [2, 13]	Cmax [2, 14] [nM]	Cavg [2, 4] [nM]	Cavg [2, 5] [nM]	Cavg [2, 6] [nM]	Cavg [2, 9] [nM]	Cmax ([2]; pravastatin + placebo (N = 16)) [nM]	Cavg [2, 8] [nM]	Cavg [2, 10] [nM]	other results
O=C(O)CCCCCCCCCCCCC(=O)O [TDA, tetradecanedioic acid]	0.902 ± 0.378	0.448 ± 0.153	0.9	0.9	1.7	1.8	2.2	2.5	2.0	2.2	68 ± 26 nM	55 ± 44 nM	149 ± 71	144 ± 13.9	64.5 ± 26.4	87.6 ± 29.5	86.0 ± 35.8	94.7 ± 118	34.6 ± 10.4	38 ± 13.7	AUC(0-t) (OATP1B1 [1]; [4]): 1.55 µM·h; AUC(0-t) (OATP1B1 [1]; [5]): 0.652 ± 0.246 µM·h; AUC(0-t) (OATP1B1 [1]; [6]): 0.927 ± 0.282 µM·h; AUC(0-t) (OATP1B1 [1]; [7]): 1.8 µM·h; AUC(0-t) (OATP1B1 [1]; [8]): 0.386 ± 0.084 µM·h; C0 (OATP1B1 [1]; pravastatin + placebo, CC): 131 ± 48.9 nM; C0 (OATP1B1 [1]; pravastatin + placebo, TC): 31.3 ± 5 nM; C0 (OATP1B1 [1]; pravastatin + placebo, TT): 44 ± 24.5 nM; AUClast [2, 11]: 0.593 ± 0.489 µM·h; C0 fold increase, pravastatin plus CsA over pravastatin plus placebo ([2]; CC): 0.7 fold; C0 fold increase, pravastatin plus CsA over pravastatin plus placebo ([2]; TC): 1.4 fold; C0 fold increase, pravastatin plus CsA over pravastatin plus placebo ([2]; TT): 2.1 fold; ratio of mean AUC in SLCO1B1 c.521‐CC to c.521TT [2]: 4.0 fold; Cavg [2, 7]: 171 ± 53.7 nM; Cavg [2, 11]: 53.3 ± 49.3 nM and 53.3 ± 49.3****^, ^b nM; increase in plasma concentration, Cmax over baseline ([2]; pravastatin plus placebo, individuals homozygous c.521‐CC): at least twofold; time of peak plasma level ([2]; two individuals c.521‐CC): around 3 hours and 3.0 hours
coproporphyrin I [CP‐I]	0.0155 ± 0.0067	0.0069 ± 0.0012	1.5	1.6	1.7	2.0	1.7	1.9	1.9	2.2	BLOQ in most samples	BLOQ in most samples	2.16 ± 0.71	2.50 ± 0.68	1.67 ± 0.33	1.15 ± 0.28	1.51 ± 0.56	1.04 ± 0.45	0.88 ± 0.26	0.6 ± 0.1	AUClast [2, 4]: 0.0276 ± 0.0084 µM·h; AUClast [2, 5]: 0.0165 ± 0.0057 µM·h; AUClast [2, 6]: 0.0118 ± 0.0023 µM·h; AUClast [2, 7]: 0.0178 ± 0.0032 µM·h; AUClast [2, 8]: 0.0098 ± 0.0033 µM·h; AUClast [2, 11]: 0.0094 ± 0.0042 µM·h; baseline (C0) level [2]: below the levels of quantification for 12 of 16 samples; ratio of mean AUC in SLCO1B1 c.521‐CC to c.521TT [2]: 2.6 fold; Cavg [2, 11]: 0.83 ± 0.36 nM and 0.83 ± 0.36****^, ^b nM
CCOc1cc(CC(=O)N[C@@H](CC(C)C)c2ccccc2N2CCCCC2)ccc1C(=O)O [repaglinide]																					increase in plasma levels in individuals with the OATP1B1‐Val174Ala variant (OATP1B1 [3]): 1.5–3 fold
coproporphyrin III [CP‐III]	0.00168 ± 0.00044	0.0012 ± 0.00017	1.2	1.3	3.0	1.7	1.3	1.4	1.5	1.7	BLOQ in most samples	BLOQ in most samples	0.24 ± 0.05	0.21 ± 0.008	0.18 ± 0.02	0.15 ± 0.03	0.17 ± 0.03	0.15 ± 0.039	0.11 ± 0.03	0.11 ± 0.02	AUClast [2, 4]: 0.00222 ± 0.00013 µM·h; AUClast [2, 5]: 0.00165 ± 0.0006 µM·h; AUClast [2, 6]: 0.00156 ± 0.00024 µM·h; AUClast [2, 7]: 0.0017 ± 1.3e-05 µM·h; AUClast [2, 8]: 0.001 ± 0.00068 µM·h; baseline (C0) level [2]: below the levels of quantification for 12 of 16 samples; AUClast fold increase, pravastatin plus CsA over pravastatin plus placebo ([2]; all genotype): 1.9 fold and 1.68 ± 0.44 (1.9) fold; Cavg [2, 7]: 0.15 ± 0.004 nM
